According to US8476455B2, “1-N-phenyl-amino-1h-imidazole derivatives and pharmaceutical compositions containing them” (Laboratoire Theramex, priority 2003, dated 2013):

Columns and labels:
human estrone sulfatase = biological target: T1, human estrone sulfatase (Homo sapiens, UniProt P08842); assay: Steroid (estrone) sulfatase activity alone in JEG-3 cells; format: cell-based; settings: footnote b: sulfatase activity alone, nd: not detected, read-out: Sulfatase activity IC50 (nM) ± S.E.M.
T1 construct: The JEG-3 cell line is intrinsically very rich in human estrone sulfatase; endogenous in cells; host or cells: JEG-3 (human placental choriocarcinoma)
T1 sequence (P08842 22-583): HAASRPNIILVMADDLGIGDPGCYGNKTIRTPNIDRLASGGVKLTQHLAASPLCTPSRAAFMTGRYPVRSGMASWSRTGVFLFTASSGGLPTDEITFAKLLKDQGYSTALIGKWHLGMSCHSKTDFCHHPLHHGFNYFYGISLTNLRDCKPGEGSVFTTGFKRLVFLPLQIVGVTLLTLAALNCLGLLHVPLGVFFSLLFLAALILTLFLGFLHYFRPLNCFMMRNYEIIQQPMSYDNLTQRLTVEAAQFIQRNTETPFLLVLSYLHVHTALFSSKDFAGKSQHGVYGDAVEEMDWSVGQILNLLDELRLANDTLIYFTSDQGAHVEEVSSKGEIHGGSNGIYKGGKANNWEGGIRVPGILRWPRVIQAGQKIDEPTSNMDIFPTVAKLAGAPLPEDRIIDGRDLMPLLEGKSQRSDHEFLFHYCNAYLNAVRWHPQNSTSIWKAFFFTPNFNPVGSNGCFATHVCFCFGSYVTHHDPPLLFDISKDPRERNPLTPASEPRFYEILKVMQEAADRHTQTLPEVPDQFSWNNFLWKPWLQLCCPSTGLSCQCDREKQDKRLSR
Protocol: (§1) The JEG-3 cell line is intrinsically very rich in human estrone sulfatase and therefore is a useful biological system to evaluate new steroid sulfatase inhibitors in vitro. Assays were carried out with cells in logarithmic growth phase on 96-well microplates. 24 h before studies, cells were seeded in decomplemented fetal calf serum (dFCS) supplemented medium. The medium was removed 24 h later and cells were rinsed with PBS to eliminate any trace of dFCS. Then, ^3H-E1S was added in dFCS free medium, followed by test compounds at concentrations ranging from 10^−12 M to 10^−5 M. After 4 h of treatment, the medium was transferred into 96-deep-well microplates and centrifuged at 200×g for 10 min to pellet cells before toluene extraction. A fraction of the medium was used for toluene extraction in order to separate the conjugated substrate from non-conjugated products. The radioactivity in the toluene phase was measured by liquid scintillation counting. In parallel, after cell solubilization in a ethylenediamine tetraacetate solution, DNA content was measured by a standard fluorimetric method using the Hoechst 33258 fluorochrome. Finally, estrone sulfatase activity was expressed in pmoles of ^3H-E1+^3H-E2 formed/4 hours/mg DNA and estrone sulfatase inhibition as a percentage of control activity without inhibitor.

human aromatase [1] = biological target: T2, human aromatase (Homo sapiens, UniProt P11511); assay: Aromatase activity alone, tritiated water method in JEG-3 cells; format: cell-based; settings: footnote a: aromatase activity alone, nd: not detected, read-out: Aromatase activity IC50 (nM) ± S.E.M.
T2 construct: The JEG-3 cell line, derived from a human placental choriocarcinoma, constitutively overexpresses human aromatase; endogenous in cells; host or cells: JEG-3 (human placental choriocarcinoma)
T2 sequence (P11511 1-503): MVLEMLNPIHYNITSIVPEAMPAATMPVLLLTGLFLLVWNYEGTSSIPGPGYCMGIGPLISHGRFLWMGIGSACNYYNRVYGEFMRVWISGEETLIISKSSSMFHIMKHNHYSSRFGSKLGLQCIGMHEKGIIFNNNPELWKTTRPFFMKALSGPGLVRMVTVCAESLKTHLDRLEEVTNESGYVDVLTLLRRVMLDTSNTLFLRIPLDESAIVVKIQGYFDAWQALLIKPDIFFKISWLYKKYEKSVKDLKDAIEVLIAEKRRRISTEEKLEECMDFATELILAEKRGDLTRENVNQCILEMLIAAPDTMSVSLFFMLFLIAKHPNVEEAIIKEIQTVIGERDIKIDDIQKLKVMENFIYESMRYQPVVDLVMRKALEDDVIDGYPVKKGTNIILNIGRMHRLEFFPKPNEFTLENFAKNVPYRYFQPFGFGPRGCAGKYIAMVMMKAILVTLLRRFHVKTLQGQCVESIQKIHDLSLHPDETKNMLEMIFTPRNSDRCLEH
Protocol: The JEG-3 cell line, derived from a human placental choriocarcinoma, constitutively overexpresses human aromatase and represents a relevant model for assaying putative aromatase inhibitors in vitro. Aromatase activity was determined by the tritiated water method. In brief, cells were first seeded into 96-well microplates in decomplemented fetal calf serum (dFCS) supplemented medium. 24 hours later, cells were rinsed and fresh medium containing 1β-^3H-androstenedione as aromatase substrate was added together with test compounds at concentrations ranging from 10^−12 M to 10^−5 M. After 2 hours of incubation, a fraction of the medium was transferred to homologous new 96-well microplates and a dextran-coated charcoal solution was added to each well. Following standing on ice for 10 minutes, microplates were centrifuged (1500 g; 4° C.). All steroids, including the radioactive substrate and the newly biosynthesized estrogens, were adsorbed on charcoal; only ^3H-water specifically formed during aromatisation of 1β-^3H-androstenedione, remained in the supernatant. The radioactivity in the supernatant was measured by liquid scintillation counting. In parallel, cell solubilization was performed in ethylenediamine tetraacetate solution. […] Finally, aromatase activity was expressed in fmoles of ^3H-water formed/2 hours/μg DNA and aromatase inhibition as a percentage of control activity without inhibitor.

Ishikawa cells = assay: Alkaline phosphatase activity in Ishikawa cells (estrogenic potency); format: cell-based
Protocol: Ishikawa cells were plated into 96-well microplates 48 hours before studies. The next day, the medium was replaced by phenol red free medium supplemented with 5% charcoal-stripped dFCS. 24 hours later, the medium was renewed and compounds were added to the plated cells and incubated for an additional four-day period. […] At the end of the incubation period, alkaline phosphatase activity (APase) was assayed by a method involving the hydrolysis of p-nitrophenyl phosphate to p-nitrophenol and spectrophotometric determination of the product at 405 nm.
In brief, the microplates were first rinsed twice with cold phosphate buffered solution and then placed at −80° C. for at least 15 minutes. After thawing at room temperature, 50 μl ice-cold solution containing 5 mM p-nitrophenyl phosphate was added to each well. After a 15 to 60 minute incubation period at room temperature, the intensity of the yellow color generated by the production of p-nitrophenol was measured into each well at 405 nm.
For each tested concentration, APase activity, reflected by absorbance, was first expressed as fold increase over control (FI) and then as percentage of E2 activity (10^-8 M) chosen equal to 100%.

human steroid sulfatase = biological target: T3, human steroid sulfatase (Homo sapiens, UniProt P08842); assay: Dual aromatase and steroid sulfatase activities in JEG-3 cells: sulfatase readout; format: cell-based; settings: footnote c: dual aromatase and sulfatase activity, nd: not detected, read-out: Sulfatase activity IC50 (nM) ± S.E.M.
T3 construct: The JEG-3 cell line is intrinsically very rich in human estrone sulfatase; endogenous in cells; host or cells: JEG-3 (human placental choriocarcinoma)
T3 sequence (P08842 22-583): T1 sequence (P08842 22-583)
Protocol: as §1
(§2) In order to evaluate the inhibitory potency of DASI compounds in parallel on both human aromatase and steroid sulfatase activities, a new in vitro model was set up using JEG-3 cells. The experimental conditions of the steroid sulfatase model previously described was adopted with slight modifications: the presence of the two substrates ^3-HE1S and 1β-^3H-androstenedione into the medium and an incubation period of 2 hours. Results were expressed in pmoles of product formed (^3H-E1+^3H-E2 or ^3H2O)/2 hours/mg DNA (Table 1).

human aromatase [2] = biological target: T2, human aromatase; assay: Dual aromatase and steroid sulfatase activities in JEG-3 cells: aromatase readout; format: cell-based; settings: footnote c: dual aromatase and sulfatase activity, nd: not detected, read-out: Aromatase activity IC50 (nM) ± S.E.M.
Protocol: as §1, with “Assays” for “The JEG-3 cell line is intrinsically very rich in human estrone sulfatase and therefore is a useful biological system to evaluate new steroid sulfatase inhibitors in vitro. Assays”, “In parallel, after cell solubilization in a ethylenediamine tetraacetate solution, DNA content was measured by a standard fluorimetric method using the Hoechst 33258 fluorochrome.” left out
as §2

[3] = biological target: human carbonic anhydrase II (Homo sapiens, UniProt P00918); assay: Human carbonic anhydrase II activity (p-nitrophenyl acetate, colorimetric); format: biochemical; settings: read-out: Human carbonic anhydrase II activity IC50 (nm) ± S.E.M.
Protocol: Briefly, in this assay, human carbonic anhydrase II catalyses the conversion of p-nitrophenyl acetate into pnitrophenol. The potential inhibitory effect of test compounds was evaluated by colorimetric determination of prnitrophenol produced during the enzymatic reaction. The optical density levels obtained without inhibitor will be referred to as “total activity”. The levels obtained without Inhibitor and without the enzyme will be referred to as “blank” in order to assess any interference with the substrate during the assay (Table 2).

steroid sulfatase = assay: Anti uterotrophic/anti steroid sulfatase activity in vivo; design: species or system rat; settings: ovariectomized Wistar female rats, E1S 50 μg/kg/day s.c., oral 1 mg/kg/day for 4 days; % of inhibition of the E1S induced stimulation
Protocol: Wistar female rats were ovariectomized and left to rest for 4 weeks. Prior to treatment, the absence of cyclicity was checked by vaginal smears. Animals were supplemented with estrone sulfate (EIS) at 50 μg/kg/day s.c., alone or combined with oral administration of potential sulfatase inhibitors, at 1 mg/kg/day for 4 days. The uteri were removed, freed of adjacent tissue and wet weighed (Table 3).
Estrone sulfatase activity is measured according to the method described by Purohit et al., with slight modifications. Briefly, uteri were thawed, weighed and homogenized. Aliquots of the supernatant were treated with dextran-coated charcoal and assayed for sulfatase. E1S activity is assessed after 30 min of incubation with 5 nM of ^3H-E1S and 20 μM of unlabelled E1S as substrate. Estrone sulfatase activity is expressed as pmol/h/mg protein and reported as percentage of inhibition vs E1S; for uterus weights, results are expressed as % of inhibition of the E1S induced stimulation

aromatase [4] = settings: 3 μg/kg, 24 hours after one single oral administration in female rats; cited from earlier work
aromatase [5] = assay: Inhibition of estradiol peak, in vivo aromatase inhibition model; design: species or system rat; settings: female rats, 24 hours after one oral administration
Protocol: One hundred IOPS Wistar female rats, weighing 180 to 200 g, were accommodated by four in stainless steel mesh cages. […] Vaginal smears were performed for each animal, each morning, in order to establish the different phases of cycle. […] Starting at 4.00 pm, animals received an oral administration of formulations. 24 hours later, samples of serum were collected and estradiol level were determined as previously described (Table 4).

| Structure (SMILES) | IC50 (human estrone sulfatase) [nM] | IC50 (human aromatase [1]) [nM] | melting point [°C] | also measured |
| --- | --- | --- | --- | --- |
| COc1cc(CN(c2ccc(C#N)cc2)n2ccnc2)ccc1OS(N)(=O)=O [Ex 46, Sulfamic acid 2-methoxy-4-{[N-(4-cyanophenyl)-N-(1H-imidazol-1yl)amino]methyl}phenyl ester] | 13.8 ± 2.5 | 0.79 ± 0.26 | 211 | estrogenicity in vitro (in words) (Ishikawa cells): not estrogenic |
| N#Cc1ccc(N(Cc2ccc(OS(N)(=O)=O)cc2)n2ccnc2)cc1 [Ex 43, Sulfamic acid-4-{[N-(4-cyanophenyl)-N-(1H-imidazol-1yl)amino]methyl}phenyl ester] | ~10 | 0.57 ± 0.16 | 172 | estrogenicity in vitro (in words) (Ishikawa cells): not estrogenic |
| NS(=O)(=O)Oc1ccc2c(c1)S(=O)(=O)C=C2CC1CCCCCC1 [A*, sulfamic acid, 3-cycloheptylmethylbenzothiophen-6-yl-1,1-dioxide-ester, reference compound] | 2.5 ± 0.5 | – | – | IC50 (human steroid sulfatase): 3.6 ± 0.8 nM |
| NS(=O)(=O)Oc1ccc2c3c(c(=O)oc2c1)CCCCC3 [6,6,7 COUMATE, 6,6,7-COUMATE, reference compound] | – | – | – | % inhibition (uterus weight) (steroid sulfatase): 81% |
| CC(C)(C#N)c1cc(Cn2cncn2)cc(C(C)(C)C#N)c1 [anastrozole, reference compound] | – | – | – | estradiol levels (in words) (aromatase [4]): significantly inhibits; % inhibition (estradiol peak) (aromatase [5]): 56% |

Continued, in another order:

| IC50 (human estrone sulfatase) [nM] | IC50 (human aromatase [1]) [nM] | melting point [°C] | Structure (SMILES) | also measured |
| --- | --- | --- | --- | --- |
| 2660 ± 257 | 0.82 ± 0.12 | 180 | N#Cc1ccc(N(Cc2ccc3c(c2)C=NS(=O)(=O)O3)n2ccnc2)cc1 [Ex 48, 4-[N-[(2,2-dioxido-1,2,3-benzoxathiazin-6-yl)methyl]-N-(1H-imidazol-1-yl)amino]benzonitrile] | – |
| – | – | 174 | N#Cc1ccc(N(CCOc2ccc(OS(N)(=O)=O)cc2)n2ccnc2)cc1 [Ex 51, Sulfamic acid 4-{2-[N-(4-cyanophenyl)-N-(1H-imidazol-1yl)amino]ethoxy}phenyl ester] | IC50 (human steroid sulfatase): 597 ± 67.4 nM; IC50 (human aromatase [2]): 0.34 ± 0.13 nM; IC50 [3]: 6.5 ± 0.9 nM |
